Experimental data taken from ChEMBL document CHEMBL6120961, “Design, Synthesis, and Biological Evaluation of Covalently Mucoadhesive Derivatives as Nonsystemic Intestine-Targeted TGR5 Agonists” (J Med Chem, 2024).
Each block holds one compound with its values, some of them ahead of it. Activity calls are given as the source filed them. The rule behind the calls is not given here.

Tests used:
[1] = Apparent permeability across apical to basolateral side in human Caco-2 cells at 2 uM incubated for 2 hrs by LC-MS/MS analysis; assay type: ADME, cell-based
[2] = Apparent permeability across apical to basolateral side in human Caco-2 cells assessed as drug recovery at 2 uM incubated for 2 hrs by LC-MS/MS analysis; assay type: ADME, cell-based; settings: read-out: Drug recovery
[3] = target: T1, G-protein coupled bile acid receptor 1 (Mus musculus, UniProt Q80SS6); assay: Agonist activity at mouse TGR5 expressed in HEK293T cells assessed as cAMP production incubated for 30 mins by HTRF assay; assay type: cell-based
T1 sequence (Q80SS6 whole entry): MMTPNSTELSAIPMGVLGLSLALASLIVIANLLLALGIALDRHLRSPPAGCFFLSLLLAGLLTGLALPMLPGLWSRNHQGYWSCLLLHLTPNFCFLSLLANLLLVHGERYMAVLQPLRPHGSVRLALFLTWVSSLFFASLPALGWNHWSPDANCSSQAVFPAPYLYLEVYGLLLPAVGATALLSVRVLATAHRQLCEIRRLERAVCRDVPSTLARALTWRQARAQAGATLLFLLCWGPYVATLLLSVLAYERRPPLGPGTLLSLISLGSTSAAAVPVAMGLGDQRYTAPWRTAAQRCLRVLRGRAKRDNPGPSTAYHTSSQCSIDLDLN

[4] = target: T2, G-protein coupled bile acid receptor 1 (Homo sapiens, UniProt Q8TDU6); assay: Agonist activity at human TGR5 expressed in HEK293T cells assessed as cAMP production incubated for 30 mins by HTRF assay; assay type: functional, cell-based
T2 sequence (Q8TDU6 whole entry): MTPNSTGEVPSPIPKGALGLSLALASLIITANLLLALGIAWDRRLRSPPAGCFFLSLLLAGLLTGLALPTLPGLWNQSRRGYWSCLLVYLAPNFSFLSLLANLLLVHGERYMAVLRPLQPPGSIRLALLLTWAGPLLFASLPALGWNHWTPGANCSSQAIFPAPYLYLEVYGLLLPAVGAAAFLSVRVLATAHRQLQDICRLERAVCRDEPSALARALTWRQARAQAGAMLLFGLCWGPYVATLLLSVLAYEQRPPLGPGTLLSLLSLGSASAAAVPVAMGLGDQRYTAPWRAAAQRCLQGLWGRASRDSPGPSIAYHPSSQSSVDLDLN

Mus musculus [5] = assay: (§1) Hypoglycemic activity in overnight fasted C57BL/6 mouse assessed as reduction in blood glucose level at 50 mg/kg, po preadministered with compound for 60 mins followed by first dose of glucose administration for 120 mins and measured after 120 mins of second glucose administration by oral glucose tolerance test; assay type: functional, organism-based; settings: time 5.0 hrs
Mus musculus [6] = assay: as §1, with “AUC (0 to 120 min)” for “level”, “test relative to control” for “test”; assay type: functional; set-up: scale not given: the % may be the effect or the level left; settings: time 5 hrs
Mus musculus [7] = assay: Hypoglycemic activity in TGR5-/- mouse model assessed as reduction in blood glucose level at 50 mg/kg, po preadministered with compound for 60 mins followed by glucose administration and measured after 120 mins by oral glucose tolerance test; assay type: functional, organism-based; settings: time 180.0 min
Mus musculus [8] = assay: Hypoglycemic activity in non-fasted diabetic db/db mouse model assessed as decrease in plasma HbA1c level at 50 mg/kg, IG administered once daily for 28 days by glycosylated hemoglobin (GHb) assay; assay type: functional, organism-based; settings: time 28.0 day
[9] = Acute toxicity in overnight fasted male C57BL/6J mouse model assessed as effect on total protein level in blood at 50 mg/kg, IG administered for 3 days; assay type: organism-based; settings: in vivo, po, 72 h, time 3 day
[10] = Acute toxicity in overnight fasted male C57BL/6J mouse model assessed as increase in AST level in blood at 200 mg/kg, IG administered for 3 days; assay type: organism-based; settings: in vivo, po, 72 h, time 3 day
[11] = Toxicity in overnight fasted male C57BL/6J mouse assessed as increase in gallbladder volume at 50 mg/kg, po measured after 6 hrs; assay type: organism-based; settings: in vivo
[12] = Acute toxicity in overnight fasted male C57BL/6J mouse model assessed as effect on uric acid level in blood at 50 mg/kg, IG administered for 3 days; assay type: organism-based; settings: in vivo, po, 72 h, time 3 day
Mus musculus [13] = assay: as §1, with “AUC (180 to 300 min)” for “level”, “test relative to control” for “test”; assay type: functional; set-up: scale not given: the % may be the effect or the level left; settings: time 5 hrs
[14] = Toxicity in overnight fasted male C57BL/6J mouse assessed as increase in bile weight at 50 mg/kg, iv measured after 2 hrs; assay type: organism-based; settings: in vivo
Rattus norvegicus = species on record: Rattus norvegicus; assay: Muco-adhesive activity in rat intestine assessed as disappearance of peak at 9.793 retention time incubated for 2 hrs by HPLC analysis; assay type: functional
[15] = Toxicity in overnight fasted male C57BL/6J mouse assessed as increase in gallbladder volume at 50 mg/kg, iv measured after 2 hrs; assay type: organism-based; settings: in vivo
Mus musculus [16] = assay: Induction of GLP-1 secretion in TGR5-/- mouse model at 50 mg/kg, po preadministered with vildagliptin for 1 hrs followed by compound administration and measured after 4 hrs; assay type: functional, organism-based
Mus musculus [17] = assay: Hypoglycemic activity in diet-induced obese mouse model assessed as reduction in blood glucose level at 50 mg/kg, po administered every day and measured after 4 to 8 days; assay type: functional, organism-based; settings: time 4-8 day
[18] = Acute toxicity in overnight fasted male C57BL/6J mouse model assessed as effect on ALP level in blood at 50 mg/kg, IG administered for 3 days; assay type: organism-based; settings: in vivo, po, 72 h, time 3 day
[19] = Apparent permeability across basolateral to apical side in human Caco-2 cells assessed as drug recovery at 2 uM incubated for 2 hrs by LC-MS/MS analysis; assay type: ADME, cell-based; settings: read-out: Drug recovery
[20] = Acute toxicity in overnight fasted male C57BL/6J mouse model assessed as effect on ALT level in blood at 50 mg/kg, IG administered for 3 days; assay type: organism-based; settings: in vivo, po, 72 h, time 3 day
[21] = Acute toxicity in overnight fasted male C57BL/6J mouse model assessed as effect on LDH level in blood at 50 mg/kg, IG administered for 3 days; assay type: organism-based; settings: in vivo, po, 72 h, time 3 day
[22] = Acute toxicity in overnight fasted male C57BL/6J mouse model assessed as effect on urea level in blood at 50 mg/kg, IG administered for 3 days; assay type: organism-based; settings: in vivo, po, 72 h, time 3 day
[23] = Acute toxicity in overnight fasted male C57BL/6J mouse model assessed as increase in serum uric acid level at 200 mg/kg, IG administered for 3 days; assay type: organism-based; settings: in vivo, po, 72 h, time 3 day
[24] = Acute toxicity in overnight fasted male C57BL/6J mouse model assessed as effect on […] level in blood at 50 mg/kg, IG administered for 3 days; assay type: organism-based; settings: in vivo, po, 72 h, time 3 day
[25] = Acute toxicity in overnight fasted male C57BL/6J mouse model assessed as histopathological change in liver at 50 to 200 mg/kg, IG administered for 3 days by H and E staining based analysis; assay type: organism-based; settings: in vivo, po, 72 h, dose 50-200 mg/kg, time 3 day
[26] = Apparent permeability across basolateral to apical side in human Caco-2 cells at 2 uM incubated for 2 hrs by LC-MS/MS analysis; assay type: ADME, cell-based
[27] = Acute toxicity in overnight fasted male C57BL/6J mouse model assessed as effect on AST level in blood at 50 mg/kg, IG administered for 3 days; assay type: organism-based; settings: in vivo, po, 72 h, time 3 day
Homo sapiens = species on record: Homo sapiens; assay: Binding affinity to mucin (unknown origin) assessed as disappearance of peak at 9.793 retention time incubated for 2 hrs by HPLC analysis
[28] = target: T3, G-protein coupled bile acid receptor 1 (Homo sapiens) (UniProt Q8TDU6); assay: Agonist activity at TGR5 in human NCI-H716 cells assessed as increase in GLP-1 secretion at 10 uM preincubated with vildagliptin followed by compound addition and measured after 2 hrs by GLP-1(7 to 36) ELISA; assay type: functional, cell-based; settings: filed as agonist
T3 sequence (whole entry): T2 sequence (Q8TDU6 whole entry)

Mus musculus [29] = assay: Insulin sensitizing activity in over-night fasted male C57BL/6J mouse model assessed as reduction in plasma glucose AUC level at 50 mg/kg, po preadministered with compound for 60 mins followed by insulin administration and measured after 120 mins by insulin tolerance test; assay type: functional, organism-based; settings: time 180.0 min
[30] = Acute toxicity in overnight fasted male C57BL/6J mouse model assessed as increase in ALT level in blood at 200 mg/kg, IG administered for 3 days; assay type: organism-based; settings: in vivo, po, 72 h, time 3 day
Mus musculus [31] = assay: In vivo agonist activity at TGR5 in wildtype C57BL/6J mouse assessed as increase in GLP-1 secretion in blood at 50 mg/kg, po preadministered with vildagliptin for 1 hrs followed by compound administration and measured after 4 hrs; assay type: functional, organism-based
[32] = Toxicity in overnight fasted male C57BL/6J mouse assessed as increase in bile weight at 50 mg/kg, po measured after 6 hrs; assay type: organism-based; settings: in vivo
Mus musculus [33] = assay: Hypoglycemic activity in diet-induced obese mouse model assessed as reduction in blood glucose AUC (0 to 12 days) level at 50 mg/kg, po administered every day and measured after 12 days relative to control; assay type: functional; set-up: scale not given: the % may be the effect or the level left; settings: time 12 day
[34] = Acute toxicity in overnight fasted male C57BL/6J mouse model assessed as behavioral abnormalities at 50 to 200 mg/kg, IG administered for 3 days; assay type: organism-based; settings: in vivo, po, 72 h, dose 50-200 mg/kg, time 3 day
[35] = Apparent permeability across apical to basolateral side in human Caco-2 cells assessed as drug recovery at 10 uM incubated for 2 hrs by LC-MS/MS analysis
[36] = Efflux ratio of apparent permeability across basolateral to apical over apical to basolateral side in human Caco-2 cells at 10 uM incubated for 2 hrs by LC-MS/MS analysis
[37] = Apparent permeability across basolateral to apical side in human Caco-2 cells assessed as drug recovery at 10 uM incubated for 2 hrs by LC-MS/MS analysis
[38] = Apparent permeability across apical to basolateral side in human Caco-2 cells at 10 uM incubated for 2 hrs by LC-MS/MS analysis
[39] = Apparent permeability across basolateral to apical side in human Caco-2 cells at 10 uM incubated for 2 hrs by LC-MS/MS analysis

Papp A→B at 2 h, 2 µM [1]: 18.8 ×10⁻⁶ cm/s
recovery at 2 h, 2 µM [2]: 104%
SMILES: COCCc1ccc(OCC(O)CNC(C)C)cc1 (configuration not stated) [METOPROLOL]

recovery at 2 h, 2 µM [2]: 102%
SMILES: CC(C)(C)NCC(O)COc1cccc2c1CC(O)C(O)C2 (configuration not stated) [NADOLOL]

EC50 [3]: 835 nM
EC50 [4]: 200 nM
SMILES: O=C(CCCCCN1C(=O)C=CC1=O)NCCCCNC(=O)CCc1cc(Cl)c(Oc2ccncc2C(=O)N2CCN(C3CC3)c3ccccc32)cc1Cl
Activity (Mus musculus [5]): inactive

SMILES: O=C(CCCCCN1C(=O)C=CC1=O)NCCCCCCNC(=O)CCc1cc(Cl)c(Oc2ccncc2C(=O)N2CCN(C3CC3)c3ccccc32)cc1Cl
Activity (Mus musculus [6]): 19.5%
Activity (Mus musculus [7]): inactive
Activity (Mus musculus [8]): Active
Activity [9]: Non-toxic
Activity [10]: Toxic
Activity [11]: Non-toxic
Activity [12]: Non-toxic
Activity (Mus musculus [13]): 15.9%
Activity [14]: Toxic
Activity (Rattus norvegicus): Active
Activity [15]: Toxic
Activity (Mus musculus [16]): inactive
Papp A→B at 2 h, 2 µM [1]: < 0.48 ×10⁻⁶ cm/s
Activity (Mus musculus [17]): Active
Activity [18]: Non-toxic
recovery at 2 h, 2 µM [19]: < 22.8%
Activity [20]: Non-toxic
Activity [21]: Non-toxic
Activity [22]: Non-toxic
Activity [23]: Toxic
Activity [24]: Non-toxic
Activity [25]: Non-toxic
Papp B→A at 2 h, 2 µM [26]: < 0.432 ×10⁻⁶ cm/s
Activity [27]: Non-toxic
recovery at 2 h, 2 µM [2]: < 1.1%
Activity (Homo sapiens): Active
Activity [28]: Active
Activity (Mus musculus [29]): Active
EC50 [3]: 138 nM
Activity [30]: Toxic
Activity (Mus musculus [31]): Active
Activity [32]: Non-toxic
Activity (Mus musculus [33]): 10.4%
Activity [34]: Non-toxic
EC50 [4]: 166 nM
Activity (Mus musculus [5]): Active

EC50 [3]: 400 nM
EC50 [4]: 355 nM
SMILES: O=C(CCCCCN1C(=O)C=CC1=O)NCCCCCCCCNC(=O)CCc1cc(Cl)c(Oc2ccncc2C(=O)N2CCN(C3CC3)c3ccccc32)cc1Cl
Activity (Mus musculus [5]): inactive

recovery at 2 h, 10 µM [35]: 102%
efflux ratio at 2 h, 10 µM [36]: 535
recovery at 2 h, 10 µM [37]: 103%
Papp A→B at 2 h, 10 µM [38]: 0.024 ×10⁻⁶ cm/s
Papp B→A at 2 h, 10 µM [39]: 13.1 ×10⁻⁶ cm/s
SMILES: C[C@H]1O[C@@H](O[C@H]2[C@@H](O)C[C@H](O[C@H]3[C@@H](O)C[C@H](O[C@H]4CC[C@@]5(C)[C@H](CC[C@@H]6[C@@H]5C[C@@H](O)[C@]5(C)[C@@H](C7=CC(=O)OC7)CC[C@]65O)C4)O[C@@H]3C)O[C@@H]2C)C[C@H](O)[C@@H]1O [DIGOXIN]

SMILES: O=C(c1cnccc1Oc1cc(Cl)ccc1Cl)N1CCN(C2CC2)c2ccccc21
Activity [11]: Toxic
Activity [32]: Toxic
